Consider eleven molecules from US10428083B2, “Heterocyclylmethyl-thienouracile as antagonists of the adenosine-A2B-receptor” (BAYER PHARMA AKTIENGESELLSCHAFT, priority 2015, dated 2019).

SMILES strings stand for the structures.

For test [1], the target named is T1, human adenosine A2b receptor (Homo sapiens (Human), UniProt P29275). Description: Cellular in vitro reporter gene test for A2b receptor activity (CHO-K1, CRE-luciferase, NECA stimulation). The settings on record: recombinant CHO-K1 cell line, CRE-luciferase reporter, antagonism of EC50 concentration of NECA; in some cases means of several determinations, rounded to two significant figures; read-out: A2b receptor IC50. Format: cell-based. The method, boiled down: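 CHO-K1 cells with CRE-driven luciferase; antagonists co-incubated with NECA at its EC50, determined in a pre-experiment on each test day. Luciferase read by luminescence 3 h after NECA addition.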
T1 sequence (P29275 whole entry): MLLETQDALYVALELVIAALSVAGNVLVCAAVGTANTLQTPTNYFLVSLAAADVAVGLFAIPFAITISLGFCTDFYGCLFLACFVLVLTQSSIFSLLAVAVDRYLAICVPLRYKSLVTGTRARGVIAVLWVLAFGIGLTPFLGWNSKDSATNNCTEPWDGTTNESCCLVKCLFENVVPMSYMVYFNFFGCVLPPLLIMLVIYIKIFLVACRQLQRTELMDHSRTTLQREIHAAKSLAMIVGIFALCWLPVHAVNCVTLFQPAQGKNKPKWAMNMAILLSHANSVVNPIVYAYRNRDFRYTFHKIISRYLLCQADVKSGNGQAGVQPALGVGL

Test [2] has as its system IL-6 release by human fibroblast cell line LL29. Description: NECA-induced IL-6 release by LL29 fibroblasts (ELISA). Format: cell-based. The conditions noted are these: LL29 cells, NECA 10 μM, 24 hours incubation, IL-6 in supernatant by ELISA. The procedure:
B-3. Measurement of NECA-Induced IL-6 Release by LL29 Fibroblasts
Stimulation of fibroblasts with adenosine or the adenosine analog 5′-N-ethylcarboxamidoadenosine (NECA) leads to release of the pro-inflammatory and pro-fibrotic cytokine IL-6 which can be prevented by inhibition of the A2b receptor.
Accordingly, confluent cells of the human fibroblast cell line LL29 were treated with the test substances and stimulated with NECA (10 μM). After an incubation time of 24 hours, the cell supernatant is removed and human IL-6 in the cell supernatant is determined by ELISA (Quantikine® IL6 ELISA, R&D Systems, Minneapolis, USA).
Table 3 below lists the IC50 values obtained in this way for inhibition of IL-6 release for some working examples: […]

The test system of test [3] is human pulmonary arterial endothelial and smooth muscle cells. The conditions noted are these: stimulation with adenosine analogue; cited from earlier work.
Test [4] deals with human fibroblasts. The conditions noted are these: stimulation with adenosine analogue; increased by hypoxia; cited from earlier work.
Test [5] relates to colon cancer cell lines. The settings on record: A2b receptor antagonist; cited from earlier work.
The target in test [6] is T1, human adenosine A2b receptor. The test is described as follows: Adenosine receptor radioligand binding assay, A2b ([3H]-CPX, HEK293 membranes). The settings on record: radioligand [3H]-CPX, HEK293 membrane preparation; Cheng-Prusoff. The procedure:
(§1) B-2. Adenosine Receptor Binding Assays
(§2) The binding properties of the test compounds on adenosine receptors were determined in binding studies with radioligands. For this purpose, membrane preparations of the human adenosine receptor subtypes were produced from cell lines having recombinant receptor expression (CHO cells for the A1 receptor, HEK293 cells for the A2a, A2b and A3 receptors). The following radioligands were used in the experiments: [^3H]-DPCPX for the A1 receptor, [^3H]-CGS 21680 for the A2a receptor, [^3H]-CPX for the A2b receptor and [^125I]-AB-MECA for the A3 receptor. The test substances were each tested in 8 different concentrations and 2 repeat tests per concentration. The displacement of the particular radioligand by the test compound was expressed as percentage inhibition of the specific binding of the controls. The IC50 values (concentration which brings about half-maximum inhibition of the specific binding of the controls) and the Hill coefficients (nH) were determined by a non-linear regression analysis, using the competition curves obtained from the mean values of the repeat tests and conducting a curve fit according to the Hill equation: Y=D+[A−D/1+(C/C50)^nH] (Y=specific binding; A=left-hand asymptote of the curve; D=right-hand asymptote of the curve; C=substance concentration; C50=IC50; nH=rise factor).
(§3) The inhibition constant (Ki) was calculated by the Cheng-Prusoff equation: Ki=IC50/(1+L/KD) (L=concentration of the radioligand in the assay; KD=receptor affinity of the radioligand for the receptor, determined with a Scatchard plot). [Literature: A1 receptor: Townsend-Nicholson, A. and Schofield, P. R., J. Biol. Chem. 269: 2373-2376 (1994); A2a receptor: Luthin, D. R. et al., Mol. Pharmacol. 47: 307-313 (1995); A2b receptor: Stehle, J. H. et al., Mol. Endocrinol. 6: 384-393 (1992) and Linden et al., Mol. Pharmacol. 56: 705-713 (1999); A3 receptor: Salvatore, C. A. et al., Proc. Natl. Acad. Sci. U.S.A. 90: 10365-10369 (1993) and Jacobson, K. A. et al., Neuropharmacology 36: 1157-1165 (1997)].
(§4) Table 2 below lists the Ki values thus determined from these binding assays for representative working examples: […]

Test [7] concerns the target human adenosine A1 receptor (Homo sapiens (Human), UniProt P30542). Description: Adenosine receptor radioligand binding assay, A1 ([3H]-DPCPX, CHO membranes). The conditions noted are these: radioligand [3H]-DPCPX, CHO membrane preparation; Cheng-Prusoff. The procedure:
as §1, §2, §3, §4

Test [8] has as its target human adenosine A2a receptor (Homo sapiens (Human), UniProt P29274). The test is described as follows: Adenosine receptor radioligand binding assay, A2a ([3H]-CGS 21680, HEK293 membranes). The settings on record: radioligand [3H]-CGS 21680, HEK293 membrane preparation; Cheng-Prusoff. The procedure: as §1, §2, §3, §4
Test [9] concerns the target human adenosine A3 receptor (Homo sapiens (Human), UniProt P0DMS8). The test is described as follows: Adenosine receptor radioligand binding assay, A3 ([125I]-AB-MECA, HEK293 membranes). The settings on record: radioligand [125I]-AB-MECA, HEK293 membrane preparation; Cheng-Prusoff. The procedure: as §1, §2, §3, §4
In test [10] the test system is bladder tumours and breast tumours. The conditions noted are these: bladder and breast tumour animal models; cited from earlier work.
The subject of test [11] is prostate cancer cell lines. The settings on record: A2b receptor antagonist; cited from earlier work.
For test [12], the system named is melanoma animal models. The conditions noted are these: cited from earlier work.

Sequence of human adenosine A2a receptor (P29274 whole entry): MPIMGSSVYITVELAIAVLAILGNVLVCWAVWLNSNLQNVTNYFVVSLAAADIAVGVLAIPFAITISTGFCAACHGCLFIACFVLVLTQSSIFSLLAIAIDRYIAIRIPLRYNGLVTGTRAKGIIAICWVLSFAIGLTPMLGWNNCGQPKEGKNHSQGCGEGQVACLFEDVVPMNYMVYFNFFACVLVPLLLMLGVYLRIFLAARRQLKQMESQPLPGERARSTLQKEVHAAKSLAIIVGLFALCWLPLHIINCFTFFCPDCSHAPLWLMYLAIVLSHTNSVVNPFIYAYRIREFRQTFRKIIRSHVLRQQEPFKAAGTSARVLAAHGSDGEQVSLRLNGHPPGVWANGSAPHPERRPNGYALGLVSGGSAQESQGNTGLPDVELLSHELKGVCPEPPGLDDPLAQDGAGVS
Sequence of human adenosine A3 receptor (P0DMS8 whole entry): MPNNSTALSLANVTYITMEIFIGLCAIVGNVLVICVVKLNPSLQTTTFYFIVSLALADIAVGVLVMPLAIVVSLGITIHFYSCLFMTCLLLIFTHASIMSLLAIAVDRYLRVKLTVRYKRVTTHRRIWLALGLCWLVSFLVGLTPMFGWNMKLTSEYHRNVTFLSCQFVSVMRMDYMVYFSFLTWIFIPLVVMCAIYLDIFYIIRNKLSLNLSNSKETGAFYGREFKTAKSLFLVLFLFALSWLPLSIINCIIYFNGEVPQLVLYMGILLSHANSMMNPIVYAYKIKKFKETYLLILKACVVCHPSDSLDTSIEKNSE
Sequence of human adenosine A1 receptor (P30542 whole entry): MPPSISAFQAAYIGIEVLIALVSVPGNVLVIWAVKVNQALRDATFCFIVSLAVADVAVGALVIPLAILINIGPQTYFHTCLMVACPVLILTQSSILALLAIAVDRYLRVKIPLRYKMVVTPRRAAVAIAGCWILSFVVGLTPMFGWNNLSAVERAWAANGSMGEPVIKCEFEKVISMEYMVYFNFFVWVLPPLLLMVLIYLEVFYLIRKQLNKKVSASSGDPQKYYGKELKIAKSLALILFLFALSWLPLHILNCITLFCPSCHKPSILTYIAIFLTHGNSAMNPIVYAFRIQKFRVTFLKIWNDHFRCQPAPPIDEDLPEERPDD

As for `COCCn1c(=O)n(CCc2ccccc2)c(=O)c2c(C)c(CN3CCN(C)C3=O)sc21` [Example 102, 1-(2-Methoxyethyl)-5-methyl-6-[(3-methyl-2-oxoimidazolidin-1-yl)methyl]-3-(2-phenylethyl)thieno[2,3-d]pyrimidine-2,4(1H,3H)-dione], the figures for the IC50 in test [1] and in [2] were 0.0045 µM and 0.005 µM, respectively.
For `COCCn1c(=O)n(CCc2ccccc2)c(=O)c2c(C)c(CN3CCOC3=O)sc21` [Example 20, 1-(2-Methoxyethyl)-5-methyl-6-[(2-oxo-,3-oxazolidin-3-yl)methyl]-3-(2-phenylethyl)thieno[2,3-d]pyrimidine-2,4(1H,3H)-dione] the same measures were 0.0036 µM and 0.005 µM.
For the molecule `CCNC(=O)[C@H]1O[C@@H](n2cnc3c(N)ncnc32)[C@H](O)[C@@H]1O` [NECA, 5′-(N-ethylcarboxamido)adenosine], in test [3], the “release of ET-1 and IL-6” value is “release of ET-1 and IL-6”. Further, the “release of IL-6” value in test [4] was “release of IL-6”.
For `CCCn1c(=O)c2[nH]c(-c3ccc(OCC(=O)Nc4ccc(C#N)cc4)cc3)nc2n(CCC)c1=O` [MRS1754], the “growth of colon cancer cell lines” value in test [5] is given as “reduced growth”.
As for `CCn1c(=O)c2c(C)c(CN3CCNC3=O)sc2n(CCOC)c1=O` [Example 59, 3-Ethyl-1-(2-methoxyethyl)-5-methyl-6-[(2-oxoimidazolidin-1-yl)methyl]thieno[2,3-d]pyrimidine-2,4(1H,3H)-dione], the IC50 in test [1] was determined as 0.0051 µM. Besides, the Ki is 0.0024 µM in test [6], 0.33 µM in test [7], 0.12 µM in test [8] and 11 µM in test [9].
Regarding `COCCn1c(=O)n(CCc2ccccc2)c(=O)c2c(C)c(CN3CCCC3=O)sc21` [Example 3, 1-(2-Methoxyethyl)-5-methyl-6-[(2-oxopyrrolidin-1-yl)methyl]-3-(2-phenylethyl)thieno[2,3-d]pyrimidine-2,4(1H,3H)-dione], the figures for the IC50 in [1] and in [2] were 0.0044 µM and 0.015 µM, respectively.
As for `CCn1c(=O)c2c(C)c(Cn3cc[nH]c3=O)sc2n(CCOC)c1=O` [Example 109, 3-Ethyl-1-(2-methoxyethyl)-5-methyl-6-[(2-oxo-2,3-dihydro-1H-imidazol-1-yl)methyl]thieno[2,3-d]pyrimidine-2,4(1H,3H)-dione], in [1], the IC50 worked out at 0.0042 µM. For the same molecule, the Ki came out at 0.0028 µM in test [6], 0.59 µM in test [7], 0.1 µM in [8] and 14 µM in [9].
As to `CCCn1c(=O)n(C2CC2)c(=O)c2[nH]c(-c3ccc(N(CC)C(=O)c4cccnc4)nc3)nc21` [ATL801], in [10], the metastasis result is “distinct reduction in metastasis” and the tumour growth entry is given as “slowing of tumour growth”.
As to `CCn1c(=O)c2c(C)c(CN3CCNC3=O)sc2n(CC2CCO2)c1=O` (single isomer, unassigned; enantiomer 1) [Example 66, 3-Ethyl-5-methyl-1-(oxetan-2-ylmethyl)-6-[(2-oxoimidazolidin-1-yl)methyl]thieno[2,3-d]pyrimidine-2,4(1H,3H)-dione (Enantiomer 1)], in test [1], the IC50 was determined as 0.0043 µM. In addition, the Ki in test [6] turned out to be 0.0052 µM; in test [7], 0.95 µM; in [8], 0.28 µM; in [9], 6.8 µM.
For the molecule `CCCn1c(=O)[nH]c2nc(-c3ccc(S(=O)(=O)N4CCN(c5ccc(Cl)cc5)CC4)cc3)[nH]c2c1=O` [PSB603], the “growth of several prostate cancer cell lines” value in test [11] is on record as “reduces the growth”. Moreover, the “tumour growth and metastasis” value in [12] was “reduction in tumour growth and metastasis”.
On to `COCCn1c(=O)n(C(C)C)c(=O)c2c(C)c(CN3CCNC3=O)sc21` [Example 86, 3-Isopropyl-1-(2-methoxyethyl)-5-methyl-6-[(2-oxoimidazolidin-1-yl)methyl]thieno[2,3-d]pyrimidine-2,4(1H,3H)-dione], for which, in test [1], the IC50 was found to be 0.0064 µM. In addition, the Ki in test [6] worked out at 0.0027 µM; in test [7], 1.1 µM; in test [8], 0.27 µM; in test [9], 160 µM.
